In assay [1] the target is T1, human TYK2 kinase domain (JH1) (Homo sapiens, UniProt P29597).
T1 construct: recombinantly generated catalytic kinase (also known as JH1) domain of human JAK1, JAK2, JAK3 and TYK2
T1 sequence (P29597 897-1176 limits assumed): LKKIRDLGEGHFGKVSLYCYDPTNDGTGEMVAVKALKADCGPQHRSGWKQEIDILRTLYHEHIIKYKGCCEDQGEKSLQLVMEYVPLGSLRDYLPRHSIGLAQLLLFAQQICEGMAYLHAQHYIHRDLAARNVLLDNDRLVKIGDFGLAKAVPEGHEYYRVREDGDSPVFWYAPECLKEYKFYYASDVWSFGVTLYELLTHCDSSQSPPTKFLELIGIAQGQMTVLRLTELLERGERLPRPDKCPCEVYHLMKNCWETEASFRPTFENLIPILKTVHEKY
Nature of the assay: JH1 biochemical assay for TYK2 (ADP-Glo kinase assay, recombinant JH1 catalytic domain, JAK3-974 peptide, 10 μM ATP). An outline of the steps: (§1)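 Reactions ran 100 min with 50 μM substrate peptide (JAK3-342 for JAK1 at 4 nM enzyme; JAK3-974 for JAK2 0.2 nM, JAK3 0.3 nM, TYK2 2 nM), and ADP formed was read by ADP-Glo luminescence. Eleven-point 3-fold series from 10 or 1 μM; IC50 fitted by 4-parameter logistic model.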
Background: ADP-Glo first removes unused ATP, then detects ADP through luciferase.

Assay [2] deals with T2, human JAK1 kinase domain (JH1) (Homo sapiens, UniProt P23458).
T2 construct: recombinantly generated catalytic kinase (also known as JH1) domain of human JAK1, JAK2, JAK3 and TYK2
The assay can be described thus: JH1 biochemical assay for JAK1 (ADP-Glo kinase assay, recombinant JH1 catalytic domain, JAK3-342 peptide, 35 μM ATP). An outline of the steps:
as §1

Assay [3] concerns the target T3, human JAK2 kinase domain (JH1) (Homo sapiens, UniProt O60674).
T3 construct: recombinantly generated catalytic kinase (also known as JH1) domain of human JAK1, JAK2, JAK3 and TYK2
The assay can be described thus: JH1 biochemical assay for JAK2 (ADP-Glo kinase assay, recombinant JH1 catalytic domain, JAK3-974 peptide, 15 μM ATP). In short, it runs like this: as §1

Assay [4] deals with T4, human JAK3 kinase domain (JH1) (Homo sapiens, UniProt P52333).
T4 construct: recombinantly generated catalytic kinase (also known as JH1) domain of human JAK1, JAK2, JAK3 and TYK2
The assay can be described thus: JH1 biochemical assay for JAK3 (ADP-Glo kinase assay, recombinant JH1 catalytic domain, JAK3-974 peptide, 4 μM ATP). In short, it runs like this:
as §1

The results in this text go back to US20260297085A1, “1 H-PYRROLO[2,3-B]PYRIDIN-4-YL]-2-OXOPYRROLIDINE-3-CARBONITRILE DERIVATIVES AS TYROSINE KINASE 2 (TYK2) INHIBITORS FOR THE TREATMENT OF INFLAMMATORY DISEASES” (BIOGEN MA INC., priority 2023, published 2026).

Each structure is given as a SMILES string. Counter-ions that a name gives are not always drawn.

T2 sequence (P23458 875-1153 limits assumed): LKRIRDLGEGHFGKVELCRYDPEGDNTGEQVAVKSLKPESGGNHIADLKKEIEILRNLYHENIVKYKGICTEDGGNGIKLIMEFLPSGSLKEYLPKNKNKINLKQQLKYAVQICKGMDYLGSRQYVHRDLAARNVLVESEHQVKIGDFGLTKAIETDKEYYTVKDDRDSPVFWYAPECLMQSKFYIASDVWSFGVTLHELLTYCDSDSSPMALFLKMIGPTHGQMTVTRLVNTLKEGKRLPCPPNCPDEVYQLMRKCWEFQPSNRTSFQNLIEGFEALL
T3 sequence (O60674 849-1124 limits assumed): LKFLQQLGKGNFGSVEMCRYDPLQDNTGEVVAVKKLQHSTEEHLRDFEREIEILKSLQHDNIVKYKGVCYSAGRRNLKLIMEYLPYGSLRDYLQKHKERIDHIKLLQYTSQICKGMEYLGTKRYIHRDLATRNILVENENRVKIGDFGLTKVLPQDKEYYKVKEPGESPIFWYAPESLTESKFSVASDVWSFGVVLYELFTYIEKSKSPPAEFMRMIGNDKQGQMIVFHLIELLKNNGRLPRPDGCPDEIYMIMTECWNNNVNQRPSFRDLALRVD
T4 sequence (P52333 822-1111 limits assumed): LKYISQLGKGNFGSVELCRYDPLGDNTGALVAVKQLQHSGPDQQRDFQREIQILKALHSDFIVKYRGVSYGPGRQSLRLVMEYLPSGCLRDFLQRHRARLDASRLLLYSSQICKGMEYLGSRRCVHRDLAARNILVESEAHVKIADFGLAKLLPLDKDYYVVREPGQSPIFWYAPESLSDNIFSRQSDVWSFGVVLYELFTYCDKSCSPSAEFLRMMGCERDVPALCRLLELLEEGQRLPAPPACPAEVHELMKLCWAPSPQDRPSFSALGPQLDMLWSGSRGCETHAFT

By IC50 is commonly meant the concentration that gives 50% inhibition. In the case of `C[C@@H]1CN(c2nccn3nc(-c4cnn(C)c4)cc23)C(=O)[C@]1(C#N)C1CC1` [Example 216, (3R,4S)-3-cyclopropyl-4-methyl-1-(2-(1-methyl-1H-pyrazol-4-yl)pyrazolo[1,5-a]pyrazin-4-yl)-2-oxopyrrolidine-3-carbonitrile], the IC50 in assay [1] (JH1 kinase domain, ADP-Glo) is > 100 nM; in assay [2] (JH1 kinase domain, ADP-Glo), > 10000 nM; in assay [3] (JH1 kinase domain, ADP-Glo) it was > 10000 nM; in assay [4] (JH1 kinase domain, ADP-Glo), > 10000 nM.
On to `C[C@@H]1CN(c2nc(-c3cccnc3)cn3ncc(F)c23)C(=O)[C@]1(C#N)C1CC1` [Example 222, (3R,4S)-3-cyclopropyl-1-(3-fluoro-6-(pyridin-3-yl)pyrazolo[1,5-a]pyrazin-4-yl)-4-methyl-2-oxopyrrolidine-3-carbonitrile], for which the IC50 in assay [1] (TYK2 JH1, ADP-Glo) fell in the range of 50 to 100 nM; in assay [2] (JAK1 JH1, ADP-Glo), 1000 to 5000 nM; in assay [3] (JAK2 JH1, ADP-Glo), 1000 to 5000 nM; in assay [4] (JAK3 JH1, ADP-Glo) it was 100 to 1000 nM.
For `COc1cncc(-c2cn3ncc(F)c3c(N3C[C@@H](C)[C@@](C#N)(C4CC4)C3=O)n2)c1` [Example 223, (3R,4S)-3-cyclopropyl-1-(3-fluoro-6-(5-methoxypyridin-3-yl)pyrazolo[1,5-a]pyrazin-4-yl)-4-methyl-2-oxopyrrolidine-3-carbonitrile], the IC50 in assay [1] (TYK2 JH1, ADP-Glo) lay in the range of 50 to 100 nM; in assay [2] (JAK1 JH1, ADP-Glo), 1000 to 5000 nM; in assay [3] (JAK2 JH1, ADP-Glo) it was 1000 to 5000 nM; in assay [4] (JAK3 JH1, ADP-Glo), 1000 to 5000 nM.
For the compound `COc1ccc(-c2cn3nccc3c(N3C[C@@H](C)[C@@](C#N)(C4CC4)C3=O)n2)cn1` [Example 224, (3R,4S)-3-cyclopropyl-1-(6-(6-methoxypyridin-3-yl)pyrazolo[1,5-a]pyrazin-4-yl)-4-methyl-2-oxopyrrolidine-3-carbonitrile], the IC50 in assay [1] (TYK2 JH1, ADP-Glo) lay in the range of 20 to 50 nM; in assay [2] (JAK1 JH1, ADP-Glo), 100 to 1000 nM; in assay [3] (JAK2 JH1, ADP-Glo) it was 1000 to 5000 nM; in assay [4] (JAK3 JH1, ADP-Glo) it was 1000 to 5000 nM.
Take `C[C@@H]1CN(c2nc(-c3cccnc3F)cn3nccc23)C(=O)[C@]1(C#N)C1CC1` [Example 226, (3R,4S)-3-cyclopropyl-1-(6-(2-fluoropyridin-3-yl)pyrazolo[1,5-a]pyrazin-4-yl)-4-methyl-2-oxopyrrolidine-3-carbonitrile trifluoroacetate]: the IC50 in assay [1] (TYK2 JH1, ADP-Glo) is > 100 nM; in assay [2] (JAK1 JH1, ADP-Glo), 5000 to 10000 nM; in assay [3] (JAK2 JH1, ADP-Glo), > 10000 nM; in assay [4] (JAK3 JH1, ADP-Glo), > 10000 nM.
With `C[C@@H]1CN(c2nc(-c3ccn(C)n3)cn3nccc23)C(=O)[C@]1(C#N)C1CC1` [Example 229, (3R,4S)-3-cyclopropyl-4-methyl-1-(6-(1-methyl-1H-pyrazol-3-yl)pyrazolo[1,5-a]pyrazin-4-yl)-2-oxopyrrolidine-3-carbonitrile trifluoroacetate], the IC50 in assay [1] (TYK2 JH1, ADP-Glo) was > 100 nM; in assay [2] (JAK1 JH1, ADP-Glo) it was 1000 to 5000 nM; in assay [3] (JAK2 JH1, ADP-Glo), > 10000 nM; in assay [4] (JAK3 JH1, ADP-Glo) it was 1000 to 5000 nM.
Take `COc1cc(-c2cn3nccc3c(N3C[C@@H](C)[C@@](C#N)(C4CC4)C3=O)n2)ccn1` [Example 231, (3R,4S)-3-cyclopropyl-1-(6-(2-methoxy-pyridin-4-yl)pyrazolo[1,5-a]pyrazin-4-yl)-4-methyl-2-oxopyrrolidine-3-carbonitrile trifluoroacetate]: the IC50 in assay [1] (TYK2 JH1, ADP-Glo) was > 100 nM; in assay [2] (JAK1 JH1, ADP-Glo), > 10000 nM; in assay [3] (JAK2 JH1, ADP-Glo) it was > 10000 nM; in assay [4] (JAK3 JH1, ADP-Glo) it was > 10000 nM.
As to `C[C@@H]1CN(c2nc(-c3ccc(C(F)(F)F)nc3)cn3nccc23)C(=O)[C@]1(C#N)C1CC1` [Example 238, (3R,4S)-3-cyclopropyl-4-methyl-2-oxo-1-(6-(6-(trifluoromethyl)pyridin-3-yl)pyrazolo[1,5-a]pyrazin-4-yl)pyrrolidine-3-carbonitrile trifluoroacetate], the IC50 in assay [1] (TYK2 JH1, ADP-Glo) was > 100 nM; in assay [2] (JAK1 JH1, ADP-Glo), > 10000 nM; in assay [3] (JAK2 JH1, ADP-Glo), > 10000 nM; in assay [4] (JAK3 JH1, ADP-Glo), > 10000 nM.
As to `COc1ncc(-c2cn3nccc3c(N3C[C@@H](C)[C@@](C#N)(C4CC4)C3=O)n2)cn1` [Example 240, (3R,4S)-3-cyclopropyl-1-(6-(2-methoxypyrimidin-5-yl)pyrazolo[1,5-a]pyrazin-4-yl)-4-methyl-2-oxopyrrolidine-3-carbonitrile trifluoroacetate], the IC50 in assay [1] (TYK2 JH1, ADP-Glo) was > 100 nM; in assay [2] (JAK1 JH1, ADP-Glo) it was > 10000 nM; in assay [3] (JAK2 JH1, ADP-Glo) it was > 10000 nM; in assay [4] (JAK3 JH1, ADP-Glo) it was > 10000 nM.
Regarding `Cc1cc(-c2cn3nccc3c(N3C[C@@H](C)[C@@](C#N)(C4CC4)C3=O)n2)ccn1` [Example 241, (3R,4S)-3-cyclopropyl-4-methyl-1-(6-(2-methylpyridin-4-yl)pyrazolo[1,5-a]pyrazin-4-yl)-2-oxopyrrolidine-3-carbonitrile trifluoroacetate], the IC50 lay in the range of 50 to 100 nM in assay [1] (TYK2 JH1, ADP-Glo); 100 to 1000 nM in assay [2] (JAK1 JH1, ADP-Glo); 1000 to 5000 nM in assay [3] (JAK2 JH1, ADP-Glo); 1000 to 5000 nM in assay [4] (JAK3 JH1, ADP-Glo).
In the case of `C[C@@H]1CN(c2nc(-c3cccc4cnn(C)c34)cn3nccc23)C(=O)[C@]1(C#N)C1CC1` [Example 242, (3R,4S)-3-cyclopropyl-4-methyl-1-(6-(1-methyl-1H-indazol-7-yl)pyrazolo[1,5-a]pyrazin-4-yl)-2-oxopyrrolidine-3-carbonitrile], the IC50 in assay [1] (TYK2 JH1, ADP-Glo) is > 100 nM; in assay [2] (JAK1 JH1, ADP-Glo) it was > 10000 nM; in assay [3] (JAK2 JH1, ADP-Glo) it was > 10000 nM; in assay [4] (JAK3 JH1, ADP-Glo), > 10000 nM.
With `C[C@@H]1CN(c2nc(-c3ccc(F)nc3)cn3nccc23)C(=O)[C@]1(C#N)C1CC1` [Example 243, (3R,4S)-3-cyclopropyl-1-(6-(6-fluoropyridin-3-yl)pyrazolo[1,5-a]pyrazin-4-yl)-4-methyl-2-oxopyrrolidine-3-carbonitrile trifluoroacetate], the IC50 in assay [1] (TYK2 JH1, ADP-Glo) was > 100 nM; in assay [2] (JAK1 JH1, ADP-Glo), 1000 to 5000 nM; in assay [3] (JAK2 JH1, ADP-Glo), > 10000 nM; in assay [4] (JAK3 JH1, ADP-Glo) it was 1000 to 5000 nM.
For `C[C@@H]1CN(c2nc(-c3cncc(F)c3)cn3nccc23)C(=O)[C@]1(C#N)C1CC1` [Example 246, (3R,4S)-3-cyclopropyl-1-(6-(5-fluoropyridin-3-yl)pyrazolo[1,5-a]pyrazin-4-yl)-4-methyl-2-oxopyrrolidine-3-carbonitrile trifluoroacetate], the concentration for half-maximal inhibition (IC50) in assay [1] (TYK2 JH1, ADP-Glo) fell in the range of 5 to 20 nM; in assay [2] (JAK1 JH1, ADP-Glo), 100 to 1000 nM; in assay [3] (JAK2 JH1, ADP-Glo), 100 to 1000 nM; in assay [4] (JAK3 JH1, ADP-Glo) it was 100 to 1000 nM.
With `C[C@@H]1CN(c2nc(-c3ncc[nH]3)cn3nccc23)C(=O)[C@]1(C#N)C1CC1` [Example 247, (3R,4S)-1-(6-(1H-imidazol-2-yl)pyrazolo[1,5-a]pyrazin-4-yl)-3-cyclopropyl-4-methyl-2-oxopyrrolidine-3-carbonitrile trifluoroacetate], the IC50 was > 100 nM in assay [1] (TYK2 JH1, ADP-Glo); > 10000 nM in assay [2] (JAK1 JH1, ADP-Glo); > 10000 nM in assay [3] (JAK2 JH1, ADP-Glo); > 10000 nM in assay [4] (JAK3 JH1, ADP-Glo).
As to `C[C@@H]1CN(c2nc(-c3cncc(Cl)c3)cn3nccc23)C(=O)[C@]1(C#N)C1CC1` [Example 248, (3R,4S)-1-(6-(5-chloropyridin-3-yl)pyrazolo[1,5-a]pyrazin-4-yl)-3-cyclopropyl-4-methyl-2-oxopyrrolidine-3-carbonitrile trifluoroacetate], the IC50 fell in the range of 20 to 50 nM in assay [1] (TYK2 JH1, ADP-Glo); 100 to 1000 nM in assay [2] (JAK1 JH1, ADP-Glo); 1000 to 5000 nM in assay [3] (JAK2 JH1, ADP-Glo); 1000 to 5000 nM in assay [4] (JAK3 JH1, ADP-Glo).
